Assays:
Format in all cases: cell-based
calpain = calpain activity assays in cell lines expressing IGF-1 receptor after exposure to IGF-1; details: including immortalized podocytes
Text: Inventors first focused their work on somatotropic axis and particularly IGF-1 receptor role in calpain activation. […] Calpain activity assays developed in the laboratory have been performed in several cell lines expressing IGF-1 receptor (podocyte lines, splenocytes, mesangial cells) after exposure to IGF-1.

[1] = test system: mouse smooth muscle cells; experiment: mitogenic effect of IGF-1 on mouse smooth muscle cells in vitro; details: IGF-1 stimulated
PI3kinase/Akt pathway = experiment: FOXO reporter in transfected HEK cells exposed to IGF-1; details: HEK cells transfected with FOXO reporter
Text: In addition, the inventors transfected HEK cells by a FOXO reporter measuring the activity of the Pl3kinase/Akt pathway downstream of IGF-1 receptor.

Substance	calpain activity (calpain)	mitogenic effect of IGF-1 [1]	activity of the PI3kinase/Akt pathway downstream of IGF-1 receptor (FOXO reporter) (PI3kinase/Akt pathway)
IGF-1: ligand of the IGF-1 receptor, somatotropic axis; used to stimulate cell lines	increase calpain activity in a dose- and time-dependent manner	–	–
(2Z)-3-(4-iodophenyl)-2-mercapto-2-Propenoic acid, 3-(4-iodophenyl)-2-mercapto-(Z)-2-propenoic acid [PD-150606]	–	blunted partly but significantly	inhibited significantly
